From publication PMC4030970, “Structural Evidence for the Tetrameric Assembly of Chemokine CCL11 and the Glycosaminoglycan Arixtra™” (Biomolecules, 2013)

Experiments:
CCL11 (Eotaxin-1) = biological target: T1, CCL11 (Eotaxin-1) (Homo sapiens, UniProt P51671); test: isothermal titration calorimetry; type: binding
T1 construct: mature wild-type CCL11; monomer mass about 8360 Da from m/z; monomer-dimer-tetramer mixture

CCL2 = biological target: T2, CCL2 (Homo sapiens, UniProt P13500); test: isothermal titration calorimetry; type: binding
T2 construct: construct and preparation not described in the main text; monomer-dimer, tetramer with saturating GAG
T2 sequence (P13500 24-99): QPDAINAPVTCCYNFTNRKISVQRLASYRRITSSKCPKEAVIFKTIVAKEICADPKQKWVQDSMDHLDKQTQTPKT

- Kd (CCL11 (Eotaxin-1)): 2.71 ± 0.284 µM
- Kd (CCL2): 7.98 ± 0.77 µM
Structure (SMILES): CO[C@H]1O[C@H](COS(=O)(=O)O)[C@@H](O[C@@H]2O[C@@H](C(=O)O)[C@@H](O[C@H]3O[C@H](COS(=O)(=O)O)[C@@H](O[C@@H]4O[C@H](C(=O)O)[C@@H](O[C@H]5O[C@H](COS(=O)(=O)O)[C@@H](O)[C@H](O)[C@H]5NS(=O)(=O)O)[C@H](O)[C@H]4O)[C@H](OS(=O)(=O)O)[C@H]3NS(=O)(=O)O)[C@H](O)[C@H]2OS(=O)(=O)O)[C@H](O)[C@H]1NS(=O)(=O)O [Arixtra]
